From patent US11716994B2, “Combinations of Yersinia entomophaga and pesticides or other substances” (priority 2017, dated 2023)
Where two headings read alike, the source gives them in different places.

Tests used:
Yersinia entomophaga = assay: CFU counts after exposure of Yersinia entomophaga to insecticides; assay type: cell-based; conditions: 1 hour contact
Summary of the method: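 Insecticides at 1× (label-rate based) and 5× or 10× amounts were dried from ethyl acetate as a coat inside tubes. Diluted LB-grown Y. entomophaga culture (1 ml) was added and held 1 hour on the bench. Then 100 μl was plated in triplicate on LB and colonies were counted after 48 hours at 25° C.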

fall armyworm [1] = assay: Cabbage leaf disk screening of chemical insecticide rates (flubendiamide alone), mortality; assay type: in vivo; conditions: 3rd instar
Description: Chemical insecticides were first screened against insects at a range of rates/concentrations to determine which concentrations would provide a moderate level of activity against the insects. If the chemical rates are too high, it is difficult to observe additional effects provided by the addition of either live Y. entomophaga cells or cell free filtrates of Y. entomophaga cultures.
One example is provided for flubendiamide with fall armyworm. An initial rate was selected that would fall within an expected concentration of active ingredient per volume of water, as indicated on the label of insecticide products containing that active ingredient. For flubendiamide, a concentration of 58.5 mg/L was determined based on these criteria. To create this solution, first a 10× concentration solution was made by dissolving 58.5 mg in 100 mL of acetone. Then, 1:10 dilutions of this solution were made into acetone, resulting in concentrations of the compound of 58.5, 5.85, and 0.585 mg/L. Cabbage leaf disks were dipped in either acetone (controls) or concentrations of flubendiamide at 58.5, 5.85, or 0.585 mg/L in acetone. These were set to dry for 1 hr. […] A total of 10 insects were evaluated for each treatment. Insects were observed daily and the number of dead insects was visually determined (% Mortality).

diamondback moth = assay: whole plant or invertebrate; conditions: flubendiamide 0.059 mg/L; for mortality at 0.059 µg/mL: Plutella xylostella, foliar, Abbott's corrected
Description: (§1) These were set to dry for 1 hr.
as §1
These were set to dry for 1 hr. Cabbage disks were then dipped in either 1% Luria broth (LB) media solution (controls and thiacloprid alone treatments) or in 1% cell free filtrate from a culture Y. entomophaga isolate O24G3R (Y. entomophaga alone or in combination with thiacloprid treatments).

black cutworm [2] = conditions: flubendiamide 0.59 mg/L
Description: To produce cell free filtrates, cultures of Yersinia entomophaga grown in LB medium were centrifuged at 11,448 (g) for 10 minutes. The supernatant was decanted from the centrifuged pellet and filtered through a 0.22 μm filter. Assays were performed to determine concentrations of Yen-TC (toxin complex) using ELISA, and chitinase by measuring chitinase activity on specific substrates. […] This was done to estimate relative potency of the cell free filtrates. Insects were first pre-screened with a range of dilutions of cell free filtrates to select a concentration that provided moderate activity. […] Based on these initial screens, undiluted cell free filtrate was used for cabbage looper, fall armyworm, black cutworm, and Colorado potato beetle. […] In each of the Examples below, this is expressed as 1%.
Cabbage leaf disks were dipped in either acetone (controls and Y. entomophaga alone treatments) or in indoxacarb (Sigma 33969) at 0.53 mg/L in acetone. These were set to dry for 1 hr. […] After the cabbage disks had dried for 1 hr, a single 2nd instar black cutworm was added to each individual cabbage disk. A total of 20 insects were evaluate for each treatment. Insects were observed daily and scored as live or dead.
Cabbage leaf disks were dipped in either acetone (controls and Y. entomophaga alone treatments) or in flubendiamide (Sigma 32801) at 0.59 mg/L in acetone. These were set to dry for 1 hr. […] After the cabbage disks had dried for 1 hr, a single 2nd instar black cutworm was added to each individual cabbage disk. A total of 20 insects were evaluate for each treatment. Insects were observed daily and scored as live or dead.

fall armyworm [3] = assay: Leaf disk mortality assay, Y. entomophaga cells with chemical insecticides; conditions: for LT50 (95% confidence intervals) in days: 4th instar; for mortality at 0.59 µg/mL: Spodoptera frugiperda, foliar; for % Mort. Chem.: fall armyworm, Flubendiamide 0.59 mg/L
black cutworm [4] = assay: as above; conditions: for % Mort. Chem.: black cutworm
[5] = 3rd instar, flubendiamide 0.20 mg/L, isolate O23ZMJ 1×10^4 cfu/mL
[6] = 3rd instar, flubendiamide 0.20 mg/L, isolate O348UX 1×10^4 cfu/mL
[7] = 3rd instar, flubendiamide 0.59 mg/L, isolate O43NEW 1×10^4 cfu/mL

Cc1cc(C(F)(C(F)(F)F)C(F)(F)F)ccc1NC(=O)c1cccc(I)c1C(=O)NC(C)(C)CS(C)(=O)=O [Flubendiamide]
Average CFU (Yersinia entomophaga; 0.5 mg insecticide): 328 CFU | Average CFU (Yersinia entomophaga; 5.0 mg insecticide): 0 CFU | % Mort (4DAT) (fall armyworm [1]; flubendiamide at 0.585 mg/L): 0% | % Mort (5DAT) (fall armyworm [1]; flubendiamide at 0.585 mg/L): 10% | % Mort (6DAT) (fall armyworm [1]; flubendiamide at 0.585 mg/L): 10% | % Mort (7DAT) (fall armyworm [1]; flubendiamide at 0.585 mg/L): 10% | % Mort (8DAT) (fall armyworm [1]; flubendiamide at 0.585 mg/L): 10% | % Mort (11DAT) (fall armyworm [1]; flubendiamide at 0.585 mg/L): 20% | % Mort (12DAT) (fall armyworm [1]; flubendiamide at 0.585 mg/L): 30% | LT50 (95% confidence intervals) (fall armyworm [1]; flubendiamide at 0.585 mg/L): 14.38 days | % Mort (4DAT) (fall armyworm [1]; flubendiamide at 5.85 mg/L): 10% | % Mort (5DAT) (fall armyworm [1]; flubendiamide at 5.85 mg/L): 30% | % Mort (6DAT) (fall armyworm [1]; flubendiamide at 5.85 mg/L): 90% | % Mort (7DAT) (fall armyworm [1]; flubendiamide at 5.85 mg/L): 100% | % Mort (8DAT) (fall armyworm [1]; flubendiamide at 5.85 mg/L): 100% | % Mort (11DAT) (fall armyworm [1]; flubendiamide at 5.85 mg/L): 100% | % Mort (12DAT) (fall armyworm [1]; flubendiamide at 5.85 mg/L): 100% | LT50 (95% confidence intervals) (fall armyworm [1]; flubendiamide at 5.85 mg/L): 4.61 days | % Mort (4DAT) (fall armyworm [1]; flubendiamide at 58.5 mg/L): 70% | % Mort (5DAT) (fall armyworm [1]; flubendiamide at 58.5 mg/L): 90% | % Mort (6DAT) (fall armyworm [1]; flubendiamide at 58.5 mg/L): 100% | % Mort (7DAT) (fall armyworm [1]; flubendiamide at 58.5 mg/L): 100% | % Mort (8DAT) (fall armyworm [1]; flubendiamide at 58.5 mg/L): 100% | % Mort (11DAT) (fall armyworm [1]; flubendiamide at 58.5 mg/L): 100% | % Mort (12DAT) (fall armyworm [1]; flubendiamide at 58.5 mg/L): 100% | LT50 (95% confidence intervals) (fall armyworm [1]; flubendiamide at 58.5 mg/L): 2.88 days | LT50 (95% confidence intervals) (diamondback moth; 2nd instar diamondback moth, 1% O43NEW filtrate, Probit analysis): 6.52 days | LT50 Chem. (diamondback moth; Diamondback moth): 6.52 days | % Mort. Chem. (diamondback moth; Diamondback moth, 6 DAT): 32% | mortality at 0.059 µg/mL (diamondback moth; 96 h, read-out: % Mortality (4DAT), diamondback moth, 1% O43NEW filtrate, 4 DAT): 16% | mortality at 0.059 µg/mL (diamondback moth; 120 h, read-out: % Mortality (5DAT), diamondback moth, 1% O43NEW filtrate, 5 DAT): 32% | mortality at 0.059 µg/mL (diamondback moth; 144 h, read-out: % Mortality (6DAT), diamondback moth, 1% O43NEW filtrate, 6 DAT): 32% | mortality at 0.059 µg/mL (diamondback moth; 168 h, read-out: % Mortality (7DAT), diamondback moth, 1% O43NEW filtrate, 7 DAT): 58% | mortality at 0.059 µg/mL (diamondback moth; 264 h, read-out: % Mortality (11DAT), diamondback moth, 1% O43NEW filtrate, 11 DAT): 67% | LT50 (95% confidence intervals) (black cutworm [2]; 2nd instar black cutworm, undiluted O43NEW filtrate, Probit analysis): 7.05 days | LT50 Chem. (black cutworm [2]; Black cutworm): 7.05 days | % Mort. Chem. (black cutworm [2]; Black cutworm, 7 DAT): 42% | % Mortality (5DAT) (black cutworm [2]; black cutworm, undiluted O43NEW filtrate, 5 DAT, Abbott's corrected): 0% | % Mortality (6DAT) (black cutworm [2]; black cutworm, undiluted O43NEW filtrate, 6 DAT, Abbott's corrected): 37% | % Mortality (7DAT) (black cutworm [2]; black cutworm, undiluted O43NEW filtrate, 7 DAT, Abbott's corrected): 42% | % Mortality (8DAT) (black cutworm [2]; black cutworm, undiluted O43NEW filtrate, 8 DAT, Abbott's corrected): 53% | % Mortality (9DAT) (black cutworm [2]; black cutworm, undiluted O43NEW filtrate, 9 DAT, Abbott's corrected): 74% | LT50 (95% confidence intervals) (fall armyworm [3]; 3rd instar, flubendiamide 0.59 mg/L, isolate O43NEW 1×10^6 cfu/mL): 18.28 days | LT50 (95% confidence intervals) in days (fall armyworm [3]; flubendiamide 0.59 mg/L, isolate O23ZMJ 1×10^5 cfu/mL): 7.46 (6.86-8.10) days | LT50 (95% confidence intervals) in days (fall armyworm [3]; flubendiamide 0.59 mg/L, isolate O24G3R 1×10^5 cfu/mL): 7.46 (6.86-8.10) days | LT50 (95% confidence intervals) in days (fall armyworm [3]; flubendiamide 0.59 mg/L, isolate O348UX 1×10^5 cfu/mL): 7.46 (6.86-8.10) days | mortality at 0.59 µg/mL (fall armyworm [3]; 96 h, read-out: % Mortality (4DAT), 4th instar, flubendiamide 0.59 mg/L, isolate O23ZMJ 1×10^5 cfu/mL): 0% | mortality at 0.59 µg/mL (fall armyworm [3]; 96 h, read-out: % Mortality (4DAT), 4th instar, flubendiamide 0.59 mg/L, isolate O24G3R 1×10^5 cfu/mL): 0% | mortality at 0.59 µg/mL (fall armyworm [3]; 96 h, read-out: % Mortality (4DAT), 4th instar, flubendiamide 0.59 mg/L, isolate O348UX 1×10^5 cfu/mL): 0% | mortality at 0.59 µg/mL (fall armyworm [3]; 120 h, read-out: % Mortality (5DAT), 4th instar, flubendiamide 0.59 mg/L, isolate O348UX 1×10^5 cfu/mL): 30% | mortality at 0.59 µg/mL (fall armyworm [3]; 144 h, read-out: % Mortality (6DAT), 3rd instar, flubendiamide 0.59 mg/L, isolate O43NEW 1×10^6 cfu/mL): 0% | mortality at 0.59 µg/mL (fall armyworm [3]; 144 h, read-out: % Mortality (6DAT), 4th instar, flubendiamide 0.59 mg/L, isolate O24G3R 1×10^5 cfu/mL): 26% | mortality at 0.59 µg/mL (fall armyworm [3]; 144 h, read-out: % Mortality (6DAT), 4th instar, flubendiamide 0.59 mg/L, isolate O348UX 1×10^5 cfu/mL): 26% | mortality at 0.59 µg/mL (fall armyworm [3]; 168 h, read-out: % Mortality (7DAT), 3rd instar, flubendiamide 0.59 mg/L, isolate O43NEW 1×10^6 cfu/mL): 0% | mortality at 0.59 µg/mL (fall armyworm [3]; 264 h, read-out: % Mortality (11DAT), 3rd instar, flubendiamide 0.59 mg/L, isolate O43NEW 1×10^6 cfu/mL): 18% | mortality at 0.59 µg/mL (fall armyworm [3]; […], read-out: % Mortality (8DAT), 3rd instar, flubendiamide 0.59 mg/L, isolate O43NEW 1×10^6 cfu/mL): 5% | % Mort. Chem. (fall armyworm [3]; 4 DAT): 26% | % Mort. Chem. (fall armyworm [3]; 6 DAT (row with O23ZMJ)): 0% | % Mort. Chem. (fall armyworm [3]; 6 DAT (row with O348UX)): 26% | % Mort. Chem. (fall armyworm [3]; 7 DAT): 0% | % Mortality (5DAT) (black cutworm [4]; 3rd instar black cutworm, flubendiamide 0.20 mg/L, Y. entomophaga isolate O24G3R 1 × 10^4 CFU/mL, 5 DAT, Abbott's corrected): 31% | % Mortality (6DAT) (black cutworm [4]; 3rd instar black cutworm, flubendiamide 0.20 mg/L, Y. entomophaga isolate O24G3R 1 × 10^4 CFU/mL, 6 DAT, Abbott's corrected): 44% | % Mortality (7DAT) (black cutworm [4]; 3rd instar black cutworm, flubendiamide 0.20 mg/L, Y. entomophaga isolate O24G3R 1 × 10^4 CFU/mL, 7 DAT, Abbott's corrected): 69% | LT50 (95% confidence intervals) in days (black cutworm [4]; 3rd instar black cutworm, flubendiamide 0.20 mg/L, Y. entomophaga isolate O24G3R 1 × 10^4 CFU/mL, Probit analysis): 4.83 (4.34-5.37) days | % Mortality (5DAT) (black cutworm [4]; [5]): 31% | % Mortality (6DAT) (black cutworm [4]; [5]): 44% | % Mortality (7DAT) (black cutworm [4]; [5]): 69% | LT50 (95% confidence intervals) in days (black cutworm [4]; [5]): 4.83 (4.34-5.37) days | % Mortality (5DAT) (black cutworm [4]; [6]): 31% | % Mortality (6DAT) (black cutworm [4]; [6]): 44% | % Mortality (7DAT) (black cutworm [4]; [6]): 69% | LT50 (95% confidence intervals) in days (black cutworm [4]; [6]): 4.83 (4.34-5.37) days | % Mortality (4DAT) (black cutworm [4]; [7]): 21% | % Mortality (5DAT) (black cutworm [4]; [7]): 22% | % Mortality (6DAT) (black cutworm [4]; [7]): 44% | LT50 (95% confidence intervals) in days (black cutworm [4]; [7]): 4.99 (4.53-5.48) days | % Mort. Chem. (black cutworm [4]; Flubendiamide 0.2 mg/L, 5 DAT (row with O23ZMJ)): 31% | % Mort. Chem. (black cutworm [4]; Flubendiamide 0.2 mg/L, 5 DAT (row with O24G3R)): 31% | % Mort. Chem. (black cutworm [4]; Flubendiamide 0.2 mg/L, 5 DAT (row with O348UX)): 31% | % Mort. Chem. (black cutworm [4]; Flubendiamide 0.59 mg/L, 6 DAT): 44%
